Key:
Botrytis cinerea [1] = assay: Contact evaluation (microtiter plate); format: cell-based
Method: (§1) Compound solution: Contact evaluations were conducted to determine the anti-fungal activity of each compound against Botrytis cinerea, Sclerotinia sclerotiorum, Pythium aphanidermatum, Rhizoctonia solani, Cercospora arachidicola, Mycosphaerella fijiensis, and Monilinia laxa. Five milligrams of each compound were dissolved in 0.5 milliliter of DMSO for a compound stock solution of 1.0% w/v. Compound stock solutions were serial diluted with DMSO to 20, 10, and 2 ppm final well concentration.
(§2) Fungi preparation: Botrytis cinerea spores were taken from 6-week-old cultures grown at 22 C on full strength potato dextrous agar (PDA) plates. Sclerotinia sclerotiorum, Pythium aphanidermatum, Rhizoctonia solani, and Monilinia laxa mycelia were taken from 4- to 10-day-old shake flask cultures grown at room temperature on full strength potato dextrous broth (PDB). Cercospora arachidicola mycelia were taken from 10- to 14-day-old shake flask cultures grown at room temperature on a full strength PDB amended with peanut oil. Mycosphaerella fijiensis mycelia were taken from 10- to 14-day-old shake flask cultures grown at room temperature on V8 juice broth. Sclerotinia sclerotiorum, Pythium aphanidermatum, Rhizoctonia solani, Cercospora arachidicola, and Mycosphaerella fijiensis mycelia (0.4 g mycelia) were blended for 45 seconds in 20 mL sterile de-ionized water. Monilinia laxa mycelia (1 g mycelia) was blended for 45 seconds in 30 mL of sterile de-ionized water. Botrytis cinerea spores were diluted with quarter strength PDB to 1×10^5 spores/mL final well concentration. All mycelia were diluted in water (1:5 mycelia:water) before distributing into the wells.
(§3) Microtiter plate preparation: Compound solution (10 :L), quarter strength PDB (900 :L) and fungi preparation (100 :L) were sequentially distributed into 48-well microtiter plates (n=3 replications/compound/rate). A blank consisted of quarter strength PDB and fungi preparation. Commercial fungicide controls (100 ppm diluted with water) consisted of Scala for Botrytis cinerea, Dithane F-45 for Mycosphaerella fijiensis, and Benlate for Sclerotinia sclerotiorum, Pythium aphanidermatum, Rhizoctonia solani, Cercospora arachidicola, and Monilinia laxa. Plates were shaken in a circular rotator at room temperature for 20 minutes, then incubated at 25 C for 24 to 72 hours, depending on the pathogen.
(§4) Fungal control ratings: Fungal growth in wells containing the compounds were compared to the positive control and fungal inhibition was rated as full, partial, or none. Final readings were the average of the three wells (Table 1).

Rhizoctonia solani = assay: Contact evaluation (microtiter plate); format: cell-based; conditions: Rhizoctinia solani
Method: as §1, §2, §3, §4

Sclerotinia sclerotiorum = assay: Contact evaluation (microtiter plate); format: cell-based; conditions: Sclerotinia sclerotionum
Method: as §1, §2, §3, §4

Pythium aphanidermatum = assay: Contact evaluation (microtiter plate); format: cell-based
Method: as §1, §2, §3, §4

Mycosphaerella fijiensis = assay: Contact evaluation (microtiter plate); format: cell-based
Method: as §1, §2, §3, §4

Monilinia laxa = assay: Contact evaluation (microtiter plate); format: cell-based
Method: as §1, §2, §3, §4

Cercospora arachidicola = assay: Contact evaluation (microtiter plate); format: cell-based
Method: as §1, §2, §3, §4

Botrytis cinerea [2] = assay: Detached bean leaf bioassay, fungal control; format: in vivo; conditions: 200 ppm on detached bean leaf; 100 minus percent necrotic area, three days after inoculation
Method: Compound solution: Compound solutions were prepared by diluting compound stock solutions (1.0% w/v compound in DMSO) to 200 ppm with 0.01% w/v Triton X-100. Spore solution preparation: Botrytis cinerea spores were taken from 6-week-old cultures grown at 22 C on full strength potato dextrous agar (PDA) plates and harvested in 1:16 frozen orange juice concentrate:water. Botrytis cinerea spore solutions were prepared by diluting spore cultures to 5×10^4 spores/mL with 1:16 frozen orange juice concentrate:water. Plant material: Middle trifoliate leaves of greenhouse grown Phaseolus vulgaris (Bush bean cv. Blue Lake 274) were excised and placed on a plastic grid above a tray containing moist towels. Treatment method: One half of the adaxial surface of the leaf was treated with the compound solution (100 :L) using a 3 cm Bacti Cell Spreader. A blank consisted of 0.01% w/v Triton X-100. A commercial fungicide control (200 ppm diluted with water) consisted of Scala. […] Fungal control rating: Three days after inoculation with Botrytis, the percent necrotic area under the inoculation droplet was determined. Since the areas under the blank (0.01% w/v Triton X-100) were 100% infected, fungal control was expressed as 100 minus the percent necrotic area, and thus 0% infected is 100% fungal control (n=3 leaves/compound, 5 inoculation droplets/leaf, Table 2).

[3] = system: Phaseolus vulgaris (Bush bean cv. Blue Lake 274) leaves; assay: Detached bean leaf bioassay, phytotoxicity rating; format: in vivo; conditions: 200 ppm on detached bean leaf; rated no, slight, moderate or excessive phytotoxicity
Method: Compound solution: Compound solutions were prepared by diluting compound stock solutions (1.0% w/v compound in DMSO) to 200 ppm with 0.01% w/v Triton X-100. Plant material: Middle trifoliate leaves of greenhouse grown Phaseolus vulgaris (Bush bean cv. Blue Lake 274) were excised and placed on a plastic grid above a tray containing moist towels. Treatment method: One half of the adaxial surface of the leaf was treated with the compound solution (100 :L) using a 3 cm Bacti Cell Spreader. A blank consisted of 0.01% w/v Triton X-100. A commercial fungicide control (200 ppm diluted with water) consisted of Scala. After the solutions dried, the trays containing the leaves were covered and held one day in a growth chamber (22 C). The adaxial surfaces of the leaves were then inoculated with 5-60 :L droplets of Botrytis cinerea spore solution. Phytotoxicity ratings: Phytotoxicity was rated as 0=no phytotoxicity, 1=slight phytotoxicity, 2=moderate phytotoxicity, or 3=excessive phytotoxicity (Table 2).

Compound: OCCOc1c(Br)cc(Br)c2cccnc12 [Example 1, 5,7-dibromo-8-(2-hydroxyethoxy) quinoline]
- Control of fungi (full, partial, none) (Botrytis cinerea [1]; fungicide rate 2 ppm): Partial
- Control of fungi (full, partial, none) (Botrytis cinerea [1]; fungicide rate 10 ppm): Full
- Control of fungi (full, partial, none) (Botrytis cinerea [1]; fungicide rate 20 ppm): Full
- Control of fungi (full, partial, none) (Rhizoctonia solani; fungicide rate 2 ppm): Full
- Control of fungi (full, partial, none) (Rhizoctonia solani; fungicide rate 10 ppm): Full
- Control of fungi (full, partial, none) (Rhizoctonia solani; fungicide rate 20 ppm): Full
- Control of fungi (full, partial, none) (Sclerotinia sclerotiorum; fungicide rate 2 ppm): Full
- Control of fungi (full, partial, none) (Sclerotinia sclerotiorum; fungicide rate 10 ppm): Full
- Control of fungi (full, partial, none) (Sclerotinia sclerotiorum; fungicide rate 20 ppm): Full
- Control of fungi (full, partial, none) (Pythium aphanidermatum; fungicide rate 2 ppm): Full
- Control of fungi (full, partial, none) (Pythium aphanidermatum; fungicide rate 10 ppm): Full
- Control of fungi (full, partial, none) (Pythium aphanidermatum; fungicide rate 20 ppm): Full
- Control of fungi (full, partial, none) (Mycosphaerella fijiensis; fungicide rate 2 ppm): Full
- Control of fungi (full, partial, none) (Mycosphaerella fijiensis; fungicide rate 10 ppm): Full
- Control of fungi (full, partial, none) (Mycosphaerella fijiensis; fungicide rate 20 ppm): Full
- Control of fungi (full, partial, none) (Monilinia laxa; fungicide rate 2 ppm): Full
- Control of fungi (full, partial, none) (Monilinia laxa; fungicide rate 10 ppm): Full
- Control of fungi (full, partial, none) (Monilinia laxa; fungicide rate 20 ppm): Full
- Control of fungi (full, partial, none) (Cercospora arachidicola; fungicide rate 2 ppm): None
- Control of fungi (full, partial, none) (Cercospora arachidicola; fungicide rate 10 ppm): Full
- Control of fungi (full, partial, none) (Cercospora arachidicola; fungicide rate 20 ppm): Full
- Botrytis cinerea control (200 ppm) (Botrytis cinerea [2]): 100%
- Phytotoxity (200 ppm) [3]: Slight
- melting point: 128 to 131 °C
